Read-outs that look alike come from different tables or passages of the source.
What was measured:
[1] = tested on: L. donovani intramacrophage amastigotes; experiment: L. donovani intramacrophage compound sensitivity assay; format: cell-based; details: Leishmania donovani, read-out: Intra-macrophage EC50
Method: (§1) L. donovani intramacrophage ([7]), HepG2 ([55]), T. brucei ([56]), and L. donovani promastigote ([57]) compound sensitivity assays were carried out as described previously. Human HepG2 and THP-1 cells used in these assays were provided by the ATCC. Data were processed by using GRAFIT (version 5.0.4; Erithacus Software) and fitted to a 2-parameter equation to obtain the effective concentration inhibiting growth by 50% (EC50). Data are presented as the means of results from at least two independent experiments.

[2] = tested on: L. donovani promastigotes; experiment: Measurement of 8-HNT compound uptake by UPLC-MS/MS; format: cell-based, Leishmania donovani; details: 5 μM, 30 min
Method: Triplicate samples of the culture (2 × 10^7 cells; 1 ml) were harvested by centrifugation at 16,000 × g for 5 min. The supernatant (200 μl) was collected from each centrifuged sample, transferred to a fresh Eppendorf tube, and terminated by the addition of 400 μl acetonitrile (supernatant fraction). The remaining supernatant was discarded, and acetonitrile (60 μl) was added to each pellet fraction. Finally, 400 μl acetonitrile was added to 200 μl of culture (equivalent of 4 × 10^6 cells) (total fraction). All fractions were then centrifuged at 16,000 × g for 10 min and diluted as required with MilliQ water. All samples were analyzed in triplicate on a Waters Acquity UPLC instrument coupled to a Waters micro TQs mass spectrometer. Chromatographic separation was achieved by using a Waters BEH (bridged ethylene hybrid) C18 column (1.7-μm particle size, 2.1 by 50 mm), with a flow rate of 0.6 ml min^−1, an injection volume of 0.2 μl, and the following 2-min gradient: 95% mobile phase A initially, with holding for 0.3 min before decreasing to 5% mobile phase A over the next minute and holding for a further 0.49 min before returning to 95% mobile phase A. Mobile phase A was water plus 0.1% formic acid, and mobile phase B was methanol plus 0.1% formic acid. […]

[3] = tested on: T. brucei bloodstream forms; experiment: microbe, parasite or virus in culture
Method: (§2) The clonal Leishmania donovani cell line LdBOB (derived from MHOM/SD/62/1S-CL2D) was grown as promastigotes at 28°C, as described previously ([53]). Bloodstream-form T. brucei MiTat 1.2 clone 221a and its derived subline, 2T1, were cultured at 37°C in the presence of 5% CO2 in HMI9-T medium, as described previously ([54]). The human carcinoma HepG2 cell line was grown at 37°C with 5% CO2 in minimal Eagle's medium (MEM) with GlutaMAX (1×; Sigma-Aldrich), nonessential amino acids (Sigma-Aldrich), and 10% FBS. Human HepG2 and THP-1 cells used in this study were ethically sourced from the ATCC.
as §1
(§3) In the first instance, the maximum tolerated concentrations of ZnCl2, CaCl2, CuCl2, MgCl2, MnCl2, and FeCl2 were determined for each cell type. […] Standard drug sensitivity assays were carried out (as described above) for each cell type with compounds 1, 2, and 3 in the presence and absence of the maximum tolerated concentration of metal salt.

[4] = tested on: Tb927.11.15050 knockdown bloodstream trypanosomes; experiment: Drug sensitivity of Tb927.11.15050 RNAi knockdown trypanosomes; format: cell-based, Trypanosoma brucei; details: induced vs uninduced RNAi knockdown
Excerpt: (§4) Stem-loop RNAi constructs were assembled as described previously ([54], [62]). PCR primers were designed by using RNAit software ([63]). For HL2 (Tb927.11.15050), primers HL2FW and HL2RV were used to generate a 533-bp gene fragment, and for HL3 (Tb927.11.1910), primers HL3FW and HL3RV were used to generate a 513-bp gene fragment. The accuracy of all assembled constructs was verified by sequencing. Assembled constructs were linearized by using AscI prior to transfection into bloodstream T. brucei 2T1 parasites ([62]). In addition to phleomycin (1 μg ml^−1), trypanosomes maintaining successfully integrated vectors were selected using hygromycin (2.5 μg ml^−1) and confirmed to be puromycin (2 μg ml^−1) resistant. To generate C-terminal 12×Myc tagging vectors for Tb927.11.15050 (Myc1) and Tb927.11.1910 (Myc2), primers Myc1FW and Myc1RV and primers Myc2FW and Myc2RV were used to generate 924-bp and 1,095-bp fragments, respectively. Fragments were inserted into the pNATx^12xMyc construct ([54]) via HindIII and XbaI restriction sites. The accuracy of the assembled constructs was verified by sequencing, and the constructs were linearized with the restriction endonuclease MfeI prior to transfection into the above-described HL2 and HL3 trypanosomes. Trypanosomes maintaining successfully integrated vectors were selected with blasticidin (1 μg ml^−1).

[5] = tested on: L. donovani promastigotes; experiment: L. donovani promastigote compound sensitivity assay (with/without metal salts)
Method: as §2, §1, §3

HepG2 cells = experiment: HepG2 compound sensitivity assay (with/without ZnCl2); details: Homo sapiens, HepG2, read-out: HepG2 EC50
Method: as §2, §1, §3

[6] = tested on: Tb927.11.1910 knockdown bloodstream trypanosomes; experiment: Drug sensitivity of Tb927.11.1910 RNAi knockdown trypanosomes; format: cell-based; details: Trypanosoma brucei, read-out: EC50, Tb927.11.1910 knockdown
Excerpt: as §4

In the case of `Cc1nnc(-c2nc(NCc3ccc(Cl)cc3)c3cccnc3c2O)[nH]1` [Compound 1], the EC50 [1] is reported as 2100 nM, the “Accumulation within cells relative to supernatant (equivalent Kp values)” value ([2]; 4°C) is reported as 29 ± 13 times and the “Accumulation within cells relative to supernatant (equivalent Kp values)” value ([2]; 37°C) is reported as 296 ± 69 times. For the same compound, the “Shift (fold)” value ([3]; CaCl2 (3 mM) vs WT) was 1.1 fold, the “Shift (fold)” value ([3]; CuCl2 (5 μM) vs WT) was 1.1 fold and the “Shift (fold)” value ([3]; FeCl2 (10 μM) vs WT) was 8.0 fold. For the same compound, the “Shift (fold)” value ([3]; FeCl2 (10 μM) vs WT, listed as compound 1) was 8 fold, the “Shift (fold)” value ([3]; MgCl2 (1 mM) vs WT) was 1.1 fold and the “Shift (fold)” value ([3]; MnCl2 (10 μM) vs WT) was 1.0 fold. The EC50 ([3]; Trypanosoma brucei, read-out: EC50, wild-type [WT] trypanosomes) was 850 ± 50 nM, the EC50 ([3]; Trypanosoma brucei, read-out: Mean EC50 ± SD, Plus cation, plus CaCl2 (3 mM)) was 400 ± 100 nM and the EC50 ([3]; Trypanosoma brucei, read-out: Mean EC50 ± SD, Plus cation, plus CuCl2 (5 μM)) was 400 ± 5 nM. The EC50 ([3]; Trypanosoma brucei, read-out: Mean EC50 ± SD, Plus cation, plus MgCl2 (1 mM)) was 400 ± 30 nM, the EC50 ([3]; Trypanosoma brucei, read-out: Mean EC50 ± SD, Plus cation, plus MnCl2 (10 μM)) was 400 ± 20 nM and the EC50 ([3]; Trypanosoma brucei, read-out: Mean EC50 ± SD, WT, absence of cation, CaCl2 experiment) was 300 ± 800 nM. It also gave an EC50 ([3]; Trypanosoma brucei, read-out: Mean EC50 ± SD, WT, absence of cation, CuCl2 experiment) of 300 ± 80 nM, an EC50 ([3]; Trypanosoma brucei, read-out: Mean EC50 ± SD, WT, absence of cation, FeCl2 experiment) of 220 ± 10 nM and an EC50 ([3]; Trypanosoma brucei, read-out: Mean EC50 ± SD, WT, absence of cation, MgCl2 experiment) of 400 ± 10 nM. For the same compound, the EC50 ([3]; Trypanosoma brucei, read-out: Mean EC50 ± SD, WT, absence of cation, MnCl2 experiment) was 400 ± 10 nM, the EC50 ([3]; Trypanosoma brucei, read-out: Mean EC50 ± SD, WT, absence of cation, ZnCl2 experiment) was 360 ± 90 nM and the EC50 ([3]; Trypanosoma brucei, read-out: T. brucei bsf EC50, bloodstream form (Fig. 1)) was 320 nM. The “Shift (fold)” value ([3]; ZnCl2 (200 μM) vs WT) was 8.0 fold, the “Shift (fold)” value ([3]; ZnCl2 (200 μM) vs WT, listed as compound 1) was 8 fold and the EC50 ([3]; read-out: Mean EC50 ± SD, WT, absence of cation, FeCl2 experiment) was 200 ± 10 nM. The EC50 ([3]; read-out: Mean EC50 ± SD, WT, absence of cation, ZnCl2 experiment) was 350 ± 10 nM, the “Increase in EC50 on knockdown of Tb927.11.15050” value [4] was over 3 fold and the EC50 ([5]; Leishmania donovani, read-out: EC50 values, WT, promastigotes, absence of cation, FeCl2 experiment) was 800 ± 30 nM. It also gave an EC50 ([5]; Leishmania donovani, read-out: EC50 values, WT, promastigotes, absence of cation, ZnCl2 experiment) of 800 ± 10 nM, an EC50 ([5]; Leishmania donovani, read-out: L. donovani pro EC50, promastigotes (Fig. 1)) of 760 nM and a Shift ([5]; promastigotes, FeCl2 (100 μM) vs WT) of 2.0 fold. For the same compound, the Shift ([5]; promastigotes, ZnCl2 (100 μM) vs WT) was 11.0 fold, the Shift ([5]; promastigotes, ZnCl2 (100 μM) vs WT, listed as compound 1) was 11 fold and the EC50 ([5]; read-out: EC50 values, WT, promastigotes, absence of cation, FeCl2 experiment) was 780 ± 30 nM. The EC50 (HepG2 cells) was 10400 nM and the EC50 [6] was 600 ± 50 nM.
